Data: US8546452B2, “S1P3 receptor antagonist” (TOA Eiyo Ltd., priority 2005, dated 2013)
Where two headings read alike, the source gives them in different places.

Legend:
Assay type in all cases: cell-based
hS1P1 = biological target: T1, hS1P1 (Homo sapiens, UniProt P21453); experiment: S1P receptor subtype selectivity, S1P-induced [Ca2+]i increase in CHO-K1 cells stably expressing S1P1 (Calcium3)
T1 construct: expressed in transfected cells
Method: (§1) The selectivity to the S1P receptor subtype was examined in the following manner. […] Furthermore, a Calcium3 (Molecular Devices, Inc.) solution prepared in HBSS (+) buffer, which is a fluorescent Ca^2+ indicator, was added, and the cells were incubated for 60 minutes at 37° C. Then, 100 μL of a test compound solution prepared to a concentration of 2×10 μmol/L was added, and the cells were incubated for 20 minutes at 37° C. […] The indicator was prepared and used according to the instruction manual.
(§2) A solution of the test compound was prepared by dissolving each of the test compounds in DMSO to a concentration of 10 mmol/L, and then diluting the solution with an HBSS (+) buffer solution to the predetermined concentration. […] The measurement values were obtained by subtracting the maximum RFU value for the blind test from the maximum RFU values for control or each test compounds. A decrease in the measurement value for the test compound relative to the control was indicated as the suppression rate (%), from which the IC50 value was calculated.

hS1P3 = hS1P3 (Homo sapiens, UniProt Q99500); experiment: Suppressive effect on S1P-induced increase in [Ca2+]i, CHO-K1 cells expressing S1P3 (Fura 2-AM), IC50; details: S1P solution 50 nmol/L, read-out: hS1P3 suppression IC50
hS1P2 = biological target: T2, hS1P2 (Homo sapiens, UniProt O95136); experiment: S1P receptor subtype selectivity, S1P-induced [Ca2+]i increase in CHO-K1 cells stably expressing S1P2 (Calcium3)
T2 construct: expressed in transfected cells
Method: as §1, §2

[1] = CHO-K1, read-out: Suppression rate at 10 μM (%) hS1P1
[2] = CHO-K1, read-out: Suppression rate at 10 μM (%) hS1P2
[3] = 10 μM, CHO-K1 stably expressing S1P1, S1P solution 100 nmol/L, Calcium3, read-out: Suppression rate at 10 μM (%) hS1P1
[4] = 10 μM, CHO-K1 stably expressing S1P2, S1P solution 100 nmol/L, Calcium3, read-out: Suppression rate at 10 μM (%) hS1P2

T1 sequence (P21453 whole entry): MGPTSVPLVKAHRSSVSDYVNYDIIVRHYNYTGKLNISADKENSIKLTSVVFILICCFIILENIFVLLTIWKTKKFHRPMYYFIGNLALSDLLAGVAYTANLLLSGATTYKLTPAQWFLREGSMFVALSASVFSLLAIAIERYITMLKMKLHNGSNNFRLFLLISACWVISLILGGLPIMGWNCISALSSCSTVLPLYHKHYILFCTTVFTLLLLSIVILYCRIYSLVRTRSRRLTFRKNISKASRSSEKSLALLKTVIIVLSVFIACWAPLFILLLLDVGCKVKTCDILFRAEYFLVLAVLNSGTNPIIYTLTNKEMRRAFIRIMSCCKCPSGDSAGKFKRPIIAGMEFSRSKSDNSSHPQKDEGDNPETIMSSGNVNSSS
Chain of hS1P3 (Q99500 whole entry): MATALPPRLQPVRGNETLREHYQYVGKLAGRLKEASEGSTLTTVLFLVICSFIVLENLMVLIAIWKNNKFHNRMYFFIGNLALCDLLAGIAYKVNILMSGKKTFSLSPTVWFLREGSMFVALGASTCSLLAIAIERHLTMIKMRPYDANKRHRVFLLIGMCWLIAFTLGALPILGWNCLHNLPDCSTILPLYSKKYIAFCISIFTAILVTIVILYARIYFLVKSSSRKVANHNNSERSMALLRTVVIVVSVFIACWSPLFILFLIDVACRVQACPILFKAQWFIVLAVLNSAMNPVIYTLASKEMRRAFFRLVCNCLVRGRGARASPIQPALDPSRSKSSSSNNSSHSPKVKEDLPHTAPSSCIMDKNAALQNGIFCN
T2 sequence (O95136 whole entry): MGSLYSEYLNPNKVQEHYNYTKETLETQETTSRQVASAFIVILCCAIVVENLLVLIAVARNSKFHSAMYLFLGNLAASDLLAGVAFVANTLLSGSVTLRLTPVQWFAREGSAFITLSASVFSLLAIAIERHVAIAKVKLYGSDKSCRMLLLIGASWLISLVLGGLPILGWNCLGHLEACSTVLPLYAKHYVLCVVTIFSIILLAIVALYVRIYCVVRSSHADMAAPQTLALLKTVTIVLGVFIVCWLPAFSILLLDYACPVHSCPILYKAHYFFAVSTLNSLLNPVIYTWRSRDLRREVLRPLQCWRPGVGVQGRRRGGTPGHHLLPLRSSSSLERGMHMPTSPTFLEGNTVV

SMILES | IC50 (hS1P3) [µM] | inhibition at 10 µM (hS1P1; [3]) [%] | inhibition at 10 µM (hS1P2; [4]) [%] | inhibition at 10 µM (hS1P1; [1]) [%] | inhibition at 10 µM (hS1P2; [2]) [%]
CC(C)(C)C(=O)C(=NNc1ccccc1)Nc1ccc(Cl)cc1 [Compound 50, 1-(4-chlorophenylamino)-1-(phenylhydrazono)-3,3-dimethyl-2-butanone] | 3.74 | – | – | 25.1 | 13.6
CC(C)(C)NC(=O)C(=NNc1ccc(Cl)cc1)Nc1cccc(F)c1 [Compound 28, N-tert-butyl-[1-(4-chlorophenylhydrazono)-1-(3-fluorophenylamino)]acetamide] | 7.97 | – | – | 14.6 | 14.2
C#Cc1ccc(NC(=NNc2ccc(Cl)cc2)C(=O)c2ccco2)cc1 [Compound 117, 1-(4-chlorophenylhydrazono)-1-(4-ethynylphenylamino)-2-(2-furyl)-2-ethanone] | 2.34 | – | – | 20.4 | 31.6
CC(C)(C)C(=O)C(=NNc1ccccc1)Nc1cccc(F)c1 [Compound 49, 1-(3-fluorophenylamino)-1-(phenylhydrazono)-3,3-dimethyl-2-butanone] | 5.32 | 6.6 | 3.6 | – | –
Cc1ccc(NN=C(Nc2cccc(F)c2)C(=O)C(C)(C)C)cc1 [Compound 61, 1-(3-fluorophenylamino)-1-(4-methylphenylhydrazono)-3,3-dimethyl-2-butanone] | 3.22 | -2.9 | 8.1 | – | –
CCOC(=O)C(=NNc1ccc(Cl)cc1)Nc1ccccc1 [Compound 19, ethyl 1-(4-chlorophenylhydrazono)-1-(phenylamino)acetate] | 3.64 | -25.4 | -8.6 | – | –
CCC(CC)C(=O)C(=NNc1ccc(Cl)cc1)Nc1cccc(Cl)c1 [Compound 137, 1-(3-chlorophenylamino)-1-(4-chlorophenylhydrazono)-3-ethyl-2-pentanone] | 1.59 | – | – | 35.3 | 30.1
COc1ccc(NC(=NNc2ccc(F)cc2)C(=O)C(C)(C)C)cc1 [Compound 57, 1-(4-fluorophenylhydrazono)-1-(4-methoxyphenylamino)-3,3-dimethyl-2-butanone] | 4.95 | 11.5 | 15 | – | –
Cc1ccc(NN=C(Nc2cc(Cl)cc(Cl)c2)C(=O)C(C)(C)C)cc1 [Compound 64, 1-(3,5-dichlorophenylamino)-1-(4-methylphenylhydrazono)-3,3-dimethyl-2-butanone] | – | – | – | -1 | 9.1
O=C(C(=NNc1ccc(Cl)cc1)Nc1cc(F)cc(F)c1)N1CCCCC1 [Compound 25, [1-(4-chlorophenylhydrazono)-1-(3,5-difluorophenylamino)acetyl]piperidine] | 11.7 | – | – | – | –
O=C(C(=NNc1ccc(Cl)cc1)Nc1ccc(Cl)cc1)c1ccccc1 [Compound 12, 2-(4-chlorophenylamino)-2-(4-chlorophenylhydrazono)acetophenone] | 4.84 | – | – | – | –
O=C(C(=NNc1ccc(Cl)cc1)Nc1ccc(F)cc1)c1ccco1 [Compound 118, 1-(4-chlorophenylhydrazono)-1-(4-fluorophenylamino)-2-(2-furyl)-2-ethanone] | 3.85 | – | – | – | –
CC(=O)c1ccc(NN=C(Nc2ccc(F)cc2)C(=O)C(C)(C)C)cc1 [Compound 92, 1-(4-acetylphenylhydrazono)-1-(4-fluorophenylamino)-3,3-dimethyl-2-butanone] | 11.6 | – | – | – | –
O=C(C(=NNc1ccc(Cl)cc1)Nc1ccc(Cl)cc1)N1CCCCC1 [Compound 23, [1-(4-chlorophenylamino)-1-(4-chlorophenylhydrazono)acetyl]piperidine] | 14.5 | – | – | – | –
CC(C)(C)C(=O)C(=NNc1ccc(C(F)(F)F)cc1)Nc1cccc(F)c1 [Compound 66, 1-(3-fluorophenylamino)-1-(4-trifluoromethylphenylhydrazono)-3,3-dimethyl-2-butanone] | 7.05 | – | – | – | –
CC(C)(C)C(=O)C(=NNc1ccc(C#N)cc1)Nc1cccc(F)c1 [Compound 81, 1-(4-cyanophenylhydrazono)-1-(3-fluorophenylamino)-3,3-dimethyl-2-butanone] | 5.52 | – | – | – | –
CCOC(=O)C(=NNc1ccc(Cl)cc1)Nc1cc(Cl)cc(Cl)c1 [Compound 18, ethyl 1-(4-chlorophenylhydrazono)-1-(3,5-dichlorophenylamino)acetate] | 2.34 | – | – | – | –
O=C(C(=NNc1ccc(Cl)cc1)Nc1ccc(Br)cc1)c1ccco1 [Compound 119, 1-(4-bromophenylamino)-1-(4-chlorophenylhydrazono)-2-(2-furyl)-2-ethanone] | 4.23 | – | – | – | –
O=C(C(=NNc1ccc(Cl)cc1)Nc1ccc(F)cc1)c1ccccc1 [Compound 9, 2-(4-chlorophenylhydrazono)-2-(4-fluorophenylamino)acetophenone] | 4.57 | – | – | – | –
CC(C)(C)C(=O)C(=NNc1ccc(S(C)(=O)=O)cc1)Nc1ccc(Cl)cc1 [Compound 99, 1-(4-chlorophenylamino)-1-(4-methanesulfonylphenylhydrazono)-3,3-dimethyl-2-butanone] | 10.6 | – | – | – | –
CC(C)(C)C(=O)C(=NNc1ccc(F)cc1)Nc1ccc(Cl)cc1 [Compound 55, 1-(4-chlorophenylamino)-1-(4-fluorophenylhydrazono)-3,3-dimethyl-2-butanone] | 2.75 | – | – | – | –

Now from value to compound, other results behind:

IC50 (hS1P3) [µM] | inhibition at 10 µM (hS1P1; [3]) [%] | inhibition at 10 µM (hS1P2; [4]) [%] | SMILES | inhibition at 10 µM (hS1P1; [1]) [%] | inhibition at 10 µM (hS1P2; [2]) [%]
0.75 | 15.7 | 24.7 | C#Cc1ccc(NN=C(Nc2cccc(F)c2)C(=O)C(C)(C)C)cc1 [Compound 131, 1-(3-fluorophenylamino)-1-(4-ethynylphenylhydrazono)-3,3-dimethyl-2-butanone] | – | –
1.02 | 29.5 | 26.2 | CC(C)(C)C(=O)C(=NNc1ccccc1)Nc1ccc(Cl)c(Cl)c1 [Compound 52, 1-(3,4-dichlorophenylamino)-1-(phenylhydrazono)-3,3-dimethyl-2-butanone] | – | –
0.43 | 28.3 | 18.9 | CC(C)(C)C(=O)C(=NNc1ccc(Cl)c(Cl)c1)Nc1cccc(F)c1 [Compound 104, 1-(3,4-dichlorophenylhydrazono)-1-(3-fluorophenylamino)-3,3-dimethyl-2-butanone] | – | –
0.38 | 20.6 | 26.3 | CC(C)(C)C(=O)C(=NNc1ccc(Br)cc1)Nc1ccc(Cl)c(Cl)c1 [Compound 80, 1-(4-bromophenylhydrazono)-1-(3,4-dichlorophenylamino)-3,3-dimethyl-2-butanone] | – | –
1.9 | 5.1 | 22.3 | CC(C)(C)C(=O)C(=NNc1ccc(Br)cc1)Nc1cccc(F)c1 [Compound 73, 1-(4-bromophenylhydrazono)-1-(3-fluorophenylamino)-3,3-dimethyl-2-butanone] | – | –
0.45 | – | – | CC(C)(C)C(=O)C(=NNc1ccc(Cl)c(Cl)c1)Nc1ccc(Cl)cc1 [Compound 124, 1-(4-chlorophenylamino)-1-(3,4-dichlorophenylhydrazono)-3,3-dimethyl-2-butanone] | – | –
1.39 | – | – | CC(C)(C)C(=O)C(=NNc1ccc(F)cc1)Nc1cc(Cl)cc(Cl)c1 [Compound 59, 1-(3,5-dichlorophenylamino)-1-(4-fluorophenylhydrazono)-3,3-dimethyl-2-butanone] | – | –
1.51 | – | – | CC(C)(C)C(=O)C(=NNc1ccc(Br)cc1)Nc1ccc(C#N)cc1 [Compound 77, 1-(4-bromophenylhydrazono)-1-(4-cyanophenylamino)-3,3-dimethyl-2-butanone] | – | –
0.52 | – | – | CC(C)(C)C(=O)C(=NNc1ccc(Br)cc1)Nc1ccc(Cl)c(F)c1 [Compound 105, 1-(4-bromophenylhydrazono)-1-(4-chloro-3-fluorophenylamino)-3,3-dimethyl-2-butanone] | – | –
0.76 | – | – | CCCCC(=O)C(=NNc1ccc(Cl)cc1)Nc1ccc(Cl)c(Cl)c1 [Compound 109, 1-(4-chlorophenylhydrazono)-1-(3,4-dichlorophenylamino)-2-hexanone] | – | –
2.09 | – | – | CC(C)(C)CC(=O)C(=NNc1ccc(Cl)cc1)Nc1ccc(F)cc1 [Compound 114, 1-(4-chlorophenylhydrazono)-1-(4-fluorophenylamino)-4,4-dimethyl-2-pentanone] | – | –
1.92 | – | – | CCOC(=O)C(=NNc1ccc(Cl)cc1)Nc1cc(F)cc(F)c1 [Compound 17, ethyl 1-(4-chlorophenylhydrazono)-1-(3,5-difluorophenylamino)acetate] | – | –
1.87 | – | – | CCOC(=O)C(=NNc1ccc(Cl)cc1)Nc1ccc(Cl)cc1 [Compound 14, ethyl 1-(4-chlorophenylamino)-1-(4-chlorophenylhydrazono)acetate] | – | –
1.22 | – | – | CC(C)(C)C(=O)C(=NNc1ccc(Cl)cc1)Nc1cc(F)cc(F)c1 [Compound 34, 1-(4-chlorophenylhydrazono)-1-(3,5-difluorophenylamino)-3,3-dimethyl-2-butanone] | – | –
0.82 | – | – | C#Cc1ccc(NC(=NNc2ccc(Cl)c(Cl)c2)C(=O)C(C)(C)C)cc1 [Compound 132, 1-(3,4-dichlorophenylhydrazono)-1-(4-ethynylphenylamino)-3,3-dimethyl-2-butanone] | – | –
